Test results published in paper PMC6941952, “A homogeneous bioluminescent immunoassay to probe cellular signaling pathway regulation” (Communications Biology, 2020).
Values joined by “and” are separate entries in the source; they are usually repeats but may differ in a detail not shown here. Identical values can stand only once.

Tested on: phospho-IκBα (Ser32)
Experiment: NanoBiT cell-based immunoassay, phosphorylated IκBα in MCF-7 cells
Parameters: species or system human
Conditions: for Fold change (TNF-treated /Non-treated): P-IkB; for P-IkB Average / Average: background subtracted
Procedure: Prior to NanoBiT Cell-Based Immunoassay, 50,000 cells were seeded in 160 µl of complete growth media per well of a 96-well plate and incubated overnight. The cells were checked under microscope and it was determined that 50,000 cells per well in 96-well plate is under 90% confluency for all cells tested. If necessary, the cell culture media were replaced with serum-free media after the cells were stably adherent on the plate and incubated overnight. To treat cells with activators or inhibitors, medium was changed to 30 µl of medium containing inhibitors. If activation of a specific pathway is needed, the cells were stimulated with 10 µl of medium containing activators. To lyse the cells, 10 µl of lysis buffer containing 0.1% digitonin diluted in 1X immunoassay buffer with protease and phosphatase inhibitors was added and the plates were mixed vigorously for 20 min. Then, 50 µl of an antibody mix containing two primary antibodies against the target protein and NanoBiT detecting antibodies (0.3 µl each per well), diluted in 1X immunoassay buffer was added to the lysates. The plates were incubated at 23 °C for 90 min, followed by the addition of 25 µl of Nano-Glo® reagent consisting of Nano-Glo® Luciferase Assay Substrate mixed with 1X immunoassay buffer. Luminescence was measured using a plate-reading luminometer.
In all, 50,000 MCF-7 cells were seeded in 160 µl complete growth medium per well of a 96-well plate and incubated overnight. Half of the cells were treated with 50 ng per ml TNFα and half with vehicle. Cells were lysed as described above and a mixture of NanoBiT secondary antibodies with primary antibodies at the matrix concentrations described in Fig. 2a were added. After 90 min incubation, the Nano-Glo® reagent was added to the reactions as described above and luminescence was measured using a plate-reading luminometer.
Single dose or dose response inhibitor treatments were performed prior to activation of the pathways as follows. For IκBα, the cells were treated in 30 µl medium with IKK16 or MG132 for 60 min before the addition of 10 µl of DMEM containing appropriate concentration of TNFα. To measure phosphorylation of AKT or STAT3, the corresponding NanoBiT immunoassays were developed with MCF-7 or A431 cells, respectively, according the same scheme used to develop the IκBα assay using the primary antibodies for AKT and STAT3 described in the reagents section. For the AKT assay, MCF-7 cells were incubated overnight in phenol-red free DMEM medium (Gibco #21063-029) without serum. Treatment with LY294002 was performed in 30 µl medium and cells were incubated for 60 min before the addition of 1 µM Insulin. To measure STAT3 phosphorylation, A431 cells were incubated overnight in DMEM medium without serum. […] After addition of the stimulators, the cells were incubated for additional times as follows. IκBα phosphorylation and degradation analyses required both time courses and single time points as described in figures. […] The NanoBiT immunoassay protocol was followed as described above.
All 96-well assay plates were read using a GloMax® 96 Microplate Luminometer from Promega. The instrument was set to 0.5 s integration time. In order to obtain net change of signal, the reagent background values (signal from the well containing all reagent except primary antibodies) were subtracted from the sample values. To plot and analyze the data, Microsoft Excel and GraphPad Prism® Software were used. IC50 values were determined by using a nonlinear regression fit to a sigmoidal dose response (variable slope).

[1] = Figure 2b, Ab incubation 5 min, listed as TNF
[2] = Figure 2b, Ab incubation 10 min, listed as TNF
[3] = Figure 2b, Ab incubation 60 min, listed as TNF
[4] = Figure 2b, Ab incubation 90 min, listed as TNF
[5] = Figure 2b, Ab incubation 120 min, listed as TNF
[6] = Figure 2b, Ab incubation 10 min
[7] = Figure 2b, Ab incubation 30 min
[8] = Figure 2b, Ab incubation 60 min
[9] = Figure 2b, Ab incubation 90 min
[10] = Figure 2b, Ab incubation 120 min
[11] = Figure 2c, Cell # 3500, listed as TNF
[12] = Figure 2c, Cell # 7000, listed as TNF
[13] = Figure 2c, Cell # 14000, listed as TNF
[14] = Figure 2c, Cell # 21000, listed as TNF
[15] = Figure 2c, Cell # 28000, listed as TNF
[16] = Figure 2c, Cell # 35000, listed as TNF
[17] = Figure 2c, Cell # 42000, listed as TNF
[18] = Figure 2c, Cell # 49000, listed as TNF
[19] = Figure 2c, Cell # 56000, listed as TNF
[20] = Figure 2c, Cell # 63000, listed as TNF
[21] = Figure 3a and 3b, listed as TNF
[22] = No MG132, TNF 2 min, listed as TNF
[23] = No MG132, TNF 4 min, listed as TNF
[24] = No MG132, TNF 10 min, listed as TNF
[25] = No MG132, TNF 12 min, listed as TNF
[26] = No MG132, TNF 15 min, listed as TNF
[27] = No MG132, TNF 30 min, listed as TNF
[28] = plate #1, IkB Ab #1 75 ng/ml, P-IkB Ab #1 75 ng/ml, TNF

TNFα
P-IkB Raw data [1]: 13050
P-IkB Subtract reagent background [1]: 1653 and 2223 and 1733
P-IkB Raw data [2]: 15430
P-IkB Subtract reagent background [2]: 4075 and 4145 and 2725
P-IkB Subtract reagent background (Figure 2b, Ab incubation 30 min, listed as TNF): 11622 and 12702 and 12152
P-IkB Raw data [3]: 35930
P-IkB Subtract reagent background [3]: 23000 and 23900 and 26790
P-IkB Raw data [4]: 44160
P-IkB Subtract reagent background [4]: 32005 and 32085 and 32105
P-IkB Raw data [5]: 26480
P-IkB Subtract reagent background [5]: 19503 and 18993 and 21543
Fold change (TNF-treated /Non-treated) (Figure 2b, Ab incubation 5 min): -51
Fold change (TNF-treated /Non-treated) [6]: 25
Fold change (TNF-treated /Non-treated) [7]: 10
Fold change (TNF-treated /Non-treated) [8]: 14
Fold change (TNF-treated /Non-treated) [9]: 13
Fold change (TNF-treated /Non-treated) [10]: 12
P-IkB Average (Figure 2b, Ab incubation 5 min): 1870
P-IkB Average [6]: 3648
P-IkB Average [7]: 12158
P-IkB Average [8]: 24563
P-IkB Average [9]: 32065
P-IkB Average [10]: 20013
Raw data [11]: 19860 and 20790
Subtract background [11]: 6010 and 6150
Raw data [12]: 22450 and 23090
Subtract background [12]: 8600 and 8450
Raw data [13]: 26500 and 26620
Subtract background [13]: 12650 and 11980
Raw data [14]: 26350 and 27260
Subtract background [14]: 12500 and 12620
Raw data [15]: 29180 and 29230
Subtract background [15]: 15330 and 14590
Raw data [16]: 32490 and 30000
Subtract background [16]: 18640 and 15360
Raw data [17]: 35680 and 35010
Subtract background [17]: 21830 and 20370
Raw data [18]: 36150 and 38410
Subtract background [18]: 22300 and 23770
Raw data [19]: 38800 and 38570
Subtract background [19]: 24950 and 23930
Raw data [20]: 40840 and 40330
Subtract background [20]: 26990 and 25690
Average (Figure 2c, Cell # 3500): 6080
Average (Figure 2c, Cell # 7000): 8525
Average (Figure 2c, Cell # 14000): 12315
Average (Figure 2c, Cell # 21000): 12560
Average (Figure 2c, Cell # 28000): 14960
Average (Figure 2c, Cell # 35000): 17000
Average (Figure 2c, Cell # 42000): 21100
Average (Figure 2c, Cell # 49000): 23035
Average (Figure 2c, Cell # 56000): 24440
Average (Figure 2c, Cell # 63000): 26340
P-IkB Average (Figure 3a and 3b): 18603
P-IkB Raw data [21]: 40970 and 39480 and 37340
P-IkB Subtract reagent background [21]: 20310 and 18820 and 16680
P-IkB Average (No MG132, TNF 2 min): 1340
P-IkB Raw data [22]: 17500 and 17960 and 17760 and 18420
P-IkB Subtract reagent background [22]: 930 and 1390 and 1190 and 1850
P-IkB Average (No MG132, TNF 4 min): 2908
P-IkB Raw data [23]: 18550 and 18960 and 19930 and 20470
P-IkB Subtract reagent background [23]: 1980 and 2390 and 3360 and 3900
P-IkB Average (No MG132, TNF 6 min): 9185
P-IkB Raw data (No MG132, TNF 6 min, listed as TNF): 21700 and 24830 and 27800 and 28690
P-IkB Average (No MG132, TNF 8 min): 17540
P-IkB Raw data (No MG132, TNF 8 min, listed as TNF): 27040 and 33390 and 37550 and 38460
P-IkB Average (No MG132, TNF 10 min): 21585
P-IkB Raw data [24]: 32290 and 37160 and 40510 and 42660
P-IkB Subtract reagent background [24]: 15720 and 20590 and 23940 and 26090
P-IkB Average (No MG132, TNF 12 min): 19345
P-IkB Raw data [25]: 33820 and 35920 and 37120 and 36800
P-IkB Subtract reagent background [25]: 17250 and 19350 and 20550 and 20230
P-IkB Average (No MG132, TNF 15 min): 13560
P-IkB Raw data [26]: 29860 and 30140 and 30400 and 30120
P-IkB Subtract reagent background [26]: 13290 and 13570 and 13830 and 13550
P-IkB Average (No MG132, TNF 30 min): 3855
P-IkB Raw data [27]: 20170 and 19970 and 20370 and 21190
P-IkB Subtract reagent background [27]: 3600 and 3400 and 3800 and 4620
Raw data [28]: 32920
Subtract reagent background [28]: 14010
